Laboratory results from ChEMBL document CHEMBL1201862, “PubChem BioAssay data set” (2004).
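In this assay, cells in 96-well plates receive the compound at five concentrations for 48 hours. Endpoints are linearly interpolated between the surrounding concentrations. GI50: concentration for 50% inhibition of growth.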 Activity calls are given as the source filed them. Rule as the data show it: active = GI50 up to about 1.1 µM and inactive = higher.

Key:
Test in all cases: NCI-60 cell line screen, 48 h
CCRF-CEM = tested on: CCRF-CEM
K562 = tested on: K562
SK-MEL-28 = tested on: SK-MEL-28
PC-3 = tested on: PC-3
SR = tested on: SR
SK-MEL-5 = tested on: SK-MEL-5
NCI-H522 = tested on: NCI-H522
786-0 = tested on: 786-0
U-251 = tested on: U-251
A549 = tested on: A549
SNB-19 = tested on: SNB-19
UO-31 = tested on: UO-31
NCI/ADR-RES = tested on: NCI/ADR-RES
T47D = tested on: T47D
SF-295 = tested on: SF-295
MDA-MB-435 = tested on: MDA-MB-435
M14 = tested on: M14
RPMI-8226 = tested on: RPMI-8226
DU-145 = tested on: DU-145
OVCAR-4 = tested on: OVCAR-4
HOP-62 = tested on: HOP-62
SN12C = tested on: SN12C
MCF7 = tested on: MCF7
OVCAR-8 = tested on: OVCAR-8
TK-10 = tested on: TK-10
RXF 393 = tested on: RXF 393
SK-MEL-2 = tested on: SK-MEL-2
SNB-75 = tested on: SNB-75
HT-29 = tested on: HT-29
IGROV-1 = tested on: IGROV-1
HCC 2998 = tested on: HCC 2998
A498 = tested on: A498
MDA-MB-231 = tested on: MDA-MB-231
UACC-257 = tested on: UACC-257
LOX IMVI = tested on: LOX IMVI
EKVX = tested on: EKVX
NCI-H23 = tested on: NCI-H23
HOP-92 = tested on: HOP-92
NCI-H226 = tested on: NCI-H226
MDA-N = tested on: MDA-N
SF-268 = tested on: SF-268
CAKI-1 = tested on: CAKI-1
UACC-62 = tested on: UACC-62
COLO 205 = tested on: COLO 205
OVCAR-3 = tested on: OVCAR-3
SK-OV-3 = tested on: SK-OV-3
OVCAR-5 = tested on: OVCAR-5
KM12 = tested on: KM12
Hs-578T = tested on: Hs-578T
HCT-15 = tested on: HCT-15
SF-539 = tested on: SF-539
MOLT-4 = tested on: MOLT-4
NCI-H460 = tested on: NCI-H460
ACHN = tested on: ACHN
SW-620 = tested on: SW-620
BT-549 = tested on: BT-549
HCT-116 = tested on: HCT-116
Malme-3M = tested on: Malme-3M

SMILES: CSc1n[nH]c2[nH]nc(C)c12
- GI50 (CCRF-CEM): > 100 µM (inactive)
- GI50 (K562): > 74 µM (inactive)
- GI50 (SK-MEL-28): > 100 µM (inactive)
- GI50 (PC-3): > 100 µM (inactive)
- GI50 (SR): 5.22 µM (inactive)
- GI50 (SK-MEL-5): > 100 µM (inactive)
- GI50 (NCI-H522): > 100 µM (inactive)
- GI50 (786-0): > 100 µM (inactive)
- GI50 (U-251): > 100 µM (inactive)
- GI50 (A549): > 100 µM (inactive)
- GI50 (SNB-19): > 100 µM (inactive)
- GI50 (UO-31): > 100 µM (inactive)
- GI50 (NCI/ADR-RES): > 100 µM (inactive)
- GI50 (T47D): > 100 µM (inactive)
- GI50 (SF-295): > 100 µM (inactive)
- GI50 (MDA-MB-435): > 100 µM (inactive)
- GI50 (M14): > 100 µM (inactive)
- GI50 (RPMI-8226): > 100 µM (inactive)
- GI50 (DU-145): > 100 µM (inactive)
- GI50 (OVCAR-4): > 100 µM (inactive)
- GI50 (HOP-62): > 100 µM (inactive)
- GI50 (SN12C): > 100 µM (inactive)
- GI50 (MCF7): > 100 µM (inactive)
- GI50 (OVCAR-8): > 100 µM (inactive)
- GI50 (TK-10): > 100 µM (inactive)
- GI50 (RXF 393): > 100 µM (inactive)
- GI50 (SK-MEL-2): > 100 µM (inactive)
- GI50 (SNB-75): > 100 µM (inactive)
- GI50 (HT-29): > 100 µM (inactive)
- GI50 (IGROV-1): > 100 µM (inactive)
- GI50 (HCC 2998): > 100 µM (inactive)
- GI50 (A498): > 100 µM (inactive)
- GI50 (MDA-MB-231): > 100 µM (inactive)
- GI50 (UACC-257): > 100 µM (inactive)
- GI50 (LOX IMVI): > 100 µM (inactive)
- GI50 (EKVX): > 100 µM (inactive)
- GI50 (NCI-H23): > 100 µM (inactive)
- GI50 (HOP-92): > 100 µM (inactive)
- GI50 (NCI-H226): > 100 µM (inactive)
- GI50 (MDA-N): > 100 µM (inactive)
- GI50 (SF-268): > 100 µM (inactive)
- GI50 (CAKI-1): > 100 µM (inactive)
- GI50 (UACC-62): > 100 µM (inactive)
- GI50 (COLO 205): > 100 µM (inactive)
- GI50 (OVCAR-3): > 100 µM (inactive)
- GI50 (SK-OV-3): > 100 µM (inactive)
- GI50 (OVCAR-5): > 100 µM (inactive)
- GI50 (KM12): > 100 µM (inactive)
- GI50 (Hs-578T): > 100 µM (inactive)
- GI50 (HCT-15): > 100 µM
- GI50 (SF-539): > 100 µM (inactive)
- GI50 (MOLT-4): 8.53 µM (inactive)
- GI50 (NCI-H460): > 100 µM (inactive)
- GI50 (ACHN): > 100 µM (inactive)
- GI50 (SW-620): > 100 µM (inactive)
- GI50 (BT-549): > 100 µM (inactive)
- GI50 (HCT-116): > 100 µM (inactive)
- GI50 (Malme-3M): > 100 µM (inactive)

SMILES: O=C1c2ccccc2C(=O)N1n1c(Cc2ccc(Cl)cc2)n[nH]c1=O
- GI50 (CCRF-CEM): > 100 µM (inactive)
- GI50 (K562): > 100 µM (inactive)
- GI50 (SK-MEL-28): > 100 µM (inactive)
- GI50 (PC-3): > 100 µM (inactive)
- GI50 (SR): > 100 µM (inactive)
- GI50 (SK-MEL-5): > 100 µM (inactive)
- GI50 (786-0): > 100 µM (inactive)
- GI50 (U-251): > 100 µM (inactive)
- GI50 (A549): > 100 µM (inactive)
- GI50 (SNB-19): > 100 µM (inactive)
- GI50 (UO-31): > 100 µM (inactive)
- GI50 (NCI/ADR-RES): > 100 µM (inactive)
- GI50 (T47D): > 100 µM (inactive)
- GI50 (SF-295): > 100 µM (inactive)
- GI50 (MDA-MB-435): > 100 µM (inactive)
- GI50 (M14): > 100 µM (inactive)
- GI50 (DU-145): > 100 µM (inactive)
- GI50 (OVCAR-4): > 100 µM (inactive)
- GI50 (HOP-62): > 100 µM (inactive)
- GI50 (SN12C): > 100 µM (inactive)
- GI50 (MCF7): > 100 µM (inactive)
- GI50 (OVCAR-8): > 100 µM (inactive)
- GI50 (TK-10): > 100 µM (inactive)
- GI50 (SK-MEL-2): > 100 µM (inactive)
- GI50 (SNB-75): > 100 µM (inactive)
- GI50 (HT-29): > 100 µM (inactive)
- GI50 (IGROV-1): > 100 µM (inactive)
- GI50 (HCC 2998): > 100 µM (inactive)
- GI50 (A498): > 100 µM (inactive)
- GI50 (MDA-MB-231): > 100 µM (inactive)
- GI50 (UACC-257): > 100 µM (inactive)
- GI50 (LOX IMVI): > 100 µM (inactive)
- GI50 (EKVX): > 100 µM (inactive)
- GI50 (NCI-H23): > 100 µM (inactive)
- GI50 (HOP-92): > 100 µM (inactive)
- GI50 (NCI-H226): > 100 µM (inactive)
- GI50 (MDA-N): > 100 µM (inactive)
- GI50 (CAKI-1): > 100 µM (inactive)
- GI50 (UACC-62): > 100 µM (inactive)
- GI50 (COLO 205): > 100 µM (inactive)
- GI50 (OVCAR-3): > 100 µM (inactive)
- GI50 (OVCAR-5): > 100 µM (inactive)
- GI50 (KM12): > 100 µM (inactive)
- GI50 (Hs-578T): > 100 µM (inactive)
- GI50 (HCT-15): > 100 µM
- GI50 (SF-539): > 100 µM (inactive)
- GI50 (MOLT-4): > 100 µM (inactive)
- GI50 (NCI-H460): > 100 µM (inactive)
- GI50 (ACHN): > 100 µM (inactive)
- GI50 (SW-620): > 100 µM (inactive)
- GI50 (BT-549): > 100 µM (inactive)
- GI50 (HCT-116): > 100 µM (inactive)
- GI50 (Malme-3M): > 100 µM (inactive)
